Measured values: patent US20260013501A1, “HERBICIDAL DERIVATIVES” (SYNGENTA CROP PROTECTION AG, priority 2022, published 2026)

Experiments:
Format in all cases: in vivo
Zea mays (ZEAMX) [1] = test: Post-emergence Test (Table B2), ZEAMX; parameters: key: 5-point damage scale: 5=81-100%, 4=61-80%, 3=41-60%, 2=21-40%, 1=0-20%; settings: evaluated after 13 days
Summary of the method: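 Evaluation 13 days post-spray gives percent plant damage, reported in five 20% bands (1=0-20% up to 5=81-100%). Test species, sown in soil and kept at 24/16 °C day/night with 14 h light, are treated with compound in 50:50 acetone/water plus 0.5% Tween 20, applied per g/ha.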

[2] = tested on: Amaranthus palmeri (AMAPA); test: Post-emergence Test (Table B2), AMAPA; parameters: key: five-point scale: 5=81-100%, 4=61-80%, 3=41-60%, 2=21-40%, 1=0-20% damage; settings: evaluated after 13 days
Experimental: (§1) Seeds of a variety of test species are sown in standard soil in pots (Ipomoea hederacea (IPOHE), Zea mays (ZEAMX), Echinochloa crus-galli (ECHCG), Amaranthus palmeri (AMAPA), (Amaranthus retoflexus (AMARE), and (Setaria faberi (SETFA)). After 8 days cultivation under controlled conditions in a glasshouse (at 24° C./16° C., day/night; 14 hours light; 65% humidity), the plants are sprayed with an aqueous spray solution derived from the formulation of the technical active ingredient in acetone/water (50:50) solution containing 0.5% Tween 20 (polyoxyethelyene sorbitan monolaurate, CAS RN 9005-64-5). Rate of application is shown in g/ha in the tables below. The test plants are then grown in a glasshouse under controlled conditions in a glasshouse (at 24° C./16° C., day/night; 14 hours light; 65% humidity) and watered twice daily. After 13 days the test is evaluated for the percentage damage caused to the plant. The biological activities are shown in the following table on a five-point scale (5=81-100%; 4=61-80%; 3=41-60%; 2=21-40%; 1=0-20%; -=not tested).

[3] = tested on: Echinochloa crus-galli (ECHCG); test: Post-emergence Test (Table B2), ECHCG; parameters: key: 5-point damage scale: 5=81-100%, 4=61-80%, 3=41-60%, 2=21-40%, 1=0-20%; settings: evaluated after 13 days
Experimental: as §1

Setaria faberi (SETFA) [4] = test: Post-emergence Test (Table B2), SETFA; parameters: key: five-point scale: 5=81-100%, 4=61-80%, 3=41-60%, 2=21-40%, 1=0-20% damage; settings: evaluated after 13 days
Experimental: as §1

[5] = tested on: Amaranthus retoflexus (AMARE); test: Post-emergence Test (Table B2), AMARE; parameters: key: five-point scale: 5=81-100%, 4=61-80%, 3=41-60%, 2=21-40%, 1=0-20% damage; settings: evaluated after 13 days
Experimental: as §1

[6] = tested on: Ipomoea hederacea (IPOHE); test: Pre-emergence Test (Table B1), IPOHE; settings: evaluated after 13 days
[7] = tested on: Echinochloa crus-galli (ECHCG); test: Pre-emergence Test (Table B1), ECHCG; settings: evaluated after 13 days
[8] = tested on: Amaranthus retoflexus (AMARE); test: Pre-emergence Test (Table B1), AMARE; settings: Rate 250 g/Ha, evaluated after 13 days
Zea mays (ZEAMX) [9] = test: Pre-emergence Test (Table B1), ZEAMX; settings: evaluated after 13 days
[10] = tested on: Ipomoea hederacea (IPOHE); test: Post-emergence Test (Table B2), IPOHE; parameters: key: five-point scale: 5=81-100%, 4=61-80%, 3=41-60%, 2=21-40%, 1=0-20% damage; settings: evaluated after 13 days
Experimental: as §1

Setaria faberi (SETFA) [11] = test: Pre-emergence Test (Table B1), SETFA; settings: Rate 250 g/Ha, evaluated after 13 days

CCn1c(Cc2cccc(C(F)(F)F)c2)cc(=O)c(C(=O)O)c1-c1ccc(Cl)c(Cl)c1 [Compound 8, 2-(3,4-dichlorophenyl)-1-ethyl-4-oxo-6-[[3-(trifluoromethyl)phenyl]methyl]pyridine-3-carboxylic acid]
0: percentage damage caused to the plant, ZEAMX (Zea mays (ZEAMX) [1]; rate 250 g/Ha) | percentage damage caused to the plant, AMAPA ([2]; rate 250 g/Ha) | percentage damage caused to the plant, ECHCG ([3]; rate 250 g/Ha) | percentage damage caused to the plant, SETFA (Setaria faberi (SETFA) [4]; rate 250 g/Ha) | percentage damage caused to the plant, AMARE ([5]; rate 250 g/Ha)

CCn1c(Cc2cccc(OC)c2)cc(=O)c(C(=O)O)c1-c1ccc(Cl)c(Cl)c1 [Compound 9, 2-(3,4-dichlorophenyl)-1-ethyl-6-[(3-methoxyphenyl)methyl]-4-oxo-pyridine-3-carboxylic acid]
0: Pre-emergence Test, percentage damage caused to the plant (five-point scale), IPOHE ([6]; Rate 250 g/Ha) | percentage damage caused to the plant, ZEAMX (Zea mays (ZEAMX) [1]; rate 250 g/Ha) | Pre-emergence Test, percentage damage caused to the plant (five-point scale), ECHCG ([7]; Rate 250 g/Ha) | percentage damage caused to the plant, ECHCG ([3]; rate 250 g/Ha) | Pre-emergence Test, percentage damage caused to the plant (five-point scale), AMARE [8] | Pre-emergence Test, percentage damage caused to the plant (five-point scale), ZEAMX (Zea mays (ZEAMX) [9]; Rate 250 g/Ha) | percentage damage caused to the plant, SETFA (Setaria faberi (SETFA) [4]; rate 250 g/Ha) | percentage damage caused to the plant, AMARE ([5]; rate 250 g/Ha)

CCn1c(Cc2ccccc2Cl)cc(=O)c(C(=O)O)c1-c1ccc(Cl)c(Cl)c1 [Compound 16, 6-[(2-chlorophenyl)methyl]-2-(3,4-dichlorophenyl)-1-ethyl-4-oxo-pyridine-3-carboxylic acid]
0: Pre-emergence Test, percentage damage caused to the plant (five-point scale), IPOHE ([6]; Rate 1000 g/Ha) | percentage damage caused to the plant, ZEAMX (Zea mays (ZEAMX) [1]; rate 1000 g/Ha) | percentage damage caused to the plant, AMAPA ([2]; rate 1000 g/Ha) | Pre-emergence Test, percentage damage caused to the plant (five-point scale), ECHCG ([7]; Rate 1000 g/Ha) | percentage damage caused to the plant, ECHCG ([3]; rate 1000 g/Ha) | percentage damage caused to the plant, SETFA (Setaria faberi (SETFA) [4]; rate 1000 g/Ha) | percentage damage caused to the plant, AMARE ([5]; rate 1000 g/Ha)

CCn1c(Cc2cccc(C(C)C)c2)cc(=O)c(C(=O)O)c1-c1ccc(Cl)c(Cl)c1 [Compound 23, 2-(3,4-dichlorophenyl)-1-ethyl-6-[(3-isopropylphenyl)methyl]-4-oxo-pyridine-3-carboxylic acid]
0: percentage damage caused to the plant, ZEAMX (Zea mays (ZEAMX) [1]; rate 1000 g/Ha) | percentage damage caused to the plant, IPOHE ([10]; rate 1000 g/Ha) | percentage damage caused to the plant, ECHCG ([3]; rate 1000 g/Ha)

CCn1c(Cc2ccccc2OC)cc(=O)c(C(=O)O)c1-c1ccc(Cl)c(Cl)c1 [Compound 24, 2-(3,4-dichlorophenyl)-1-ethyl-6-[(2-methoxyphenyl)methyl]-4-oxo-pyridine-3-carboxylic acid]
0: percentage damage caused to the plant, ZEAMX (Zea mays (ZEAMX) [1]; rate 1000 g/Ha) | percentage damage caused to the plant, IPOHE ([10]; rate 1000 g/Ha) | percentage damage caused to the plant, ECHCG ([3]; rate 1000 g/Ha)

CCn1c(Cc2ccc(C3CC3)cc2)cc(=O)c(C(=O)O)c1-c1ccc(Cl)c(Cl)c1 [Compound 25, 6-[(4-cyclopropylphenyl)meth-yl]-2-(3,4-dichlorophenyl)-1-ethyl-4-oxo-pyridine-3-carboxylic acid]
0: percentage damage caused to the plant, IPOHE ([10]; rate 1000 g/Ha) | percentage damage caused to the plant, ECHCG ([3]; rate 1000 g/Ha)

CCn1c(Cc2cccc(SC)c2)cc(=O)c(C(=O)O)c1-c1ccc(Cl)c(Cl)c1 [Compound 31, 2-(3,4-dichlorophenyl)-1-ethyl-6-[(3-methylsulfanylphenyl)methyl]-4-oxo-pyridine-3-carboxylic acid]
0: percentage damage caused to the plant, ZEAMX (Zea mays (ZEAMX) [1]; rate 1000 g/Ha) | percentage damage caused to the plant, IPOHE ([10]; rate 1000 g/Ha) | percentage damage caused to the plant, ECHCG ([3]; rate 1000 g/Ha)

CCn1c(Cc2ccc(OC)c(OC)c2)cc(=O)c(C(=O)O)c1-c1ccc(Cl)c(Cl)c1 [Compound 34, 2-(3,4-dichlorophenyl)-6-[(3,4-dimethoxyphenyl)meth-yl]-1-ethyl-4-oxo-pyridine-3-carboxylic acid]
0: percentage damage caused to the plant, ZEAMX (Zea mays (ZEAMX) [1]; rate 1000 g/Ha) | percentage damage caused to the plant, IPOHE ([10]; rate 1000 g/Ha) | percentage damage caused to the plant, ECHCG ([3]; rate 1000 g/Ha)

CCn1c(Cc2cccc(OC)c2OC)cc(=O)c(C(=O)O)c1-c1ccc(Cl)c(Cl)c1 [Compound 38, 2-(3,4-dichlorophenyl)-6-[(2,3-dimethoxyphenyl)meth-yl]-1-ethyl-4-oxo-pyridine-3-carboxylic acid]
0: percentage damage caused to the plant, ZEAMX (Zea mays (ZEAMX) [1]; rate 1000 g/Ha) | percentage damage caused to the plant, IPOHE ([10]; rate 1000 g/Ha) | percentage damage caused to the plant, ECHCG ([3]; rate 1000 g/Ha)

CCn1c(Cc2cccc(OC)n2)cc(=O)c(C(=O)O)c1-c1ccc(Cl)c(Cl)c1 [Compound 60, 2-(3,4-dichlorophenyl)-1-ethyl-6-[(6-methoxy-2-pyridyl)methyl]-4-oxo-pyridine-3-carboxylic acid]
0: Pre-emergence Test, percentage damage caused to the plant (five-point scale), SETFA (Setaria faberi (SETFA) [11]) | Pre-emergence Test, percentage damage caused to the plant (five-point scale), ZEAMX (Zea mays (ZEAMX) [9]; Rate 250 g/Ha)

CCn1c(Cc2ccc(OC)cc2F)cc(=O)c(C(=O)O)c1-c1ccc(Cl)c(Cl)c1 [Compound 89, 2-(3,4-dichlorophenyl)-1-ethyl-6-[(2-fluoro-4-methoxy-phenyl)methyl]-4-oxo-pyridine-3-carboxylic acid]
0: Pre-emergence Test, percentage damage caused to the plant (five-point scale), IPOHE ([6]; Rate 250 g/Ha) | percentage damage caused to the plant, AMAPA ([2]; rate 250 g/Ha) | percentage damage caused to the plant, ECHCG ([3]; rate 250 g/Ha) | Pre-emergence Test, percentage damage caused to the plant (five-point scale), ZEAMX (Zea mays (ZEAMX) [9]; Rate 250 g/Ha) | percentage damage caused to the plant, SETFA (Setaria faberi (SETFA) [4]; rate 250 g/Ha) | percentage damage caused to the plant, AMARE ([5]; rate 250 g/Ha)

CCn1c(Cc2ccc(F)c(C(=O)O)n2)cc(=O)c(C(=O)O)c1-c1ccc(Cl)c(Cl)c1 [Compound 98, 6-[(6-carboxy-5-fluoro-2-pyridyl)methyl]-2-(3,4-dichlorophenyl)-1-ehtyl-4-oxo-pyridine-3-carboxylic acid]
0: percentage damage caused to the plant, ZEAMX (Zea mays (ZEAMX) [1]; rate 1000 g/Ha) | percentage damage caused to the plant, IPOHE ([10]; rate 1000 g/Ha) | Pre-emergence Test, percentage damage caused to the plant (five-point scale), ZEAMX (Zea mays (ZEAMX) [9]; Rate 1000 g/Ha)

CCn1c(Cc2cc(O)cc(F)n2)cc(=O)c(C(=O)O)c1-c1ccc(Cl)c(Cl)c1 [Compound 104, 2-(3,4-dichlorophenyl)-1-ethyl-6-[(6-fluoro-4-hydroxy-2-pyridyl)methyl]-4-oxo-pyridine-3-carboxylic acid]
0: percentage damage caused to the plant, IPOHE ([10]; rate 1000 g/Ha)

CCn1c(Cc2ccc(C#N)c(=O)[nH]2)cc(=O)c(C(=O)O)c1-c1ccc(Cl)c(Cl)c1 [Compound 114, 6-[(5-cyano-6-oxo-1H-pyridin-2-yl)methyl]-2-(3,4-dichlorophenyl)-1-ethyl-4-oxo-pyridine-3-carboxylic acid]
0: percentage damage caused to the plant, ZEAMX (Zea mays (ZEAMX) [1]; rate 250 g/Ha) | percentage damage caused to the plant, AMAPA ([2]; rate 250 g/Ha) | percentage damage caused to the plant, ECHCG ([3]; rate 250 g/Ha) | percentage damage caused to the plant, SETFA (Setaria faberi (SETFA) [4]; rate 250 g/Ha) | percentage damage caused to the plant, AMARE ([5]; rate 250 g/Ha)

CCn1c(Cc2cccc(Cl)n2)cc(=O)c(C(=O)O)c1-c1ccc(OC(C)C)c(Cl)c1 [Compound 132, 2-(3-chloro-4-isopropoxy-phenyl)-6-[(6-chloro-2-pyridyl)methyl]-1-ethyl-4-oxo-pyridine-3-carboxylic acid]
0: Pre-emergence Test, percentage damage caused to the plant (five-point scale), IPOHE ([6]; Rate 250 g/Ha) | percentage damage caused to the plant, AMAPA ([2]; rate 250 g/Ha) | Pre-emergence Test, percentage damage caused to the plant (five-point scale), ECHCG ([7]; Rate 250 g/Ha) | percentage damage caused to the plant, IPOHE ([10]; rate 250 g/Ha) | Pre-emergence Test, percentage damage caused to the plant (five-point scale), AMARE [8] | Pre-emergence Test, percentage damage caused to the plant (five-point scale), ZEAMX (Zea mays (ZEAMX) [9]; Rate 250 g/Ha)

CCn1c(Cc2cnc3ccccc3n2)cc(=O)c(C(=O)O)c1-c1ccc(Cl)c(Cl)c1 [Compound 145, 2-(3,4-dichlorophenyl)-1-ethyl-4-oxo-6-(quinoxalin-2-ylmethyl)pyridine-3-carboxylic acid]
0: Pre-emergence Test, percentage damage caused to the plant (five-point scale), IPOHE ([6]; Rate 250 g/Ha) | Pre-emergence Test, percentage damage caused to the plant (five-point scale), SETFA (Setaria faberi (SETFA) [11]) | Pre-emergence Test, percentage damage caused to the plant (five-point scale), AMARE [8] | Pre-emergence Test, percentage damage caused to the plant (five-point scale), ZEAMX (Zea mays (ZEAMX) [9]; Rate 250 g/Ha)
